Series [1] deals with army worm (Spodoptera frugiperda) caterpillars. Nature of the series: Spodoptera frugiperda test. In kind it is in vivo. The conditions noted are these: in Brassica oleracea, 168 h.
Series [2] concerns greenhouse red spider mite (Tetranychus urticae). Nature of the series: Tetranychus test (OP resistant/dip treatment). The conditions noted are these: 168 h. In kind it is in vivo. How it is done: Tetranychus Test (OP Resistant/Dip Treatment)
(§1) Solvent: 7 parts by weight of dimethylformamide
After the desired period of time, the effect in % is determined.

Series [3] can be described thus: logP determination by HPLC (reversed-phase C18, EEC Directive 79/831 Annex V.A8). In kind it is physicochemical. The protocol: The logP values stated in the above tables and Preparation Examples are determined in accordance with EEC Directive 79/831 Annex V.A8 by HPLC (High Performance Liquid Chromatography) using a reversed-phase column (C 18). Temperature: 43° C.
In the acidic range at pH 2.3 the determination takes place using 0.1% aqueous phosphoric acid and acetonitrile as the mobile phases; linear gradient from 10% acetonitrile to 90% acetonitrile. Corresponding results are marked in the tables by “a)”
In the neutral range at pH 7.5 the determination takes place using 0.01 molar aqueous phosphate buffer solution and acetonitrile as the mobile phases; linear gradient from 10% acetonitrile to 90% acetonitrile. Corresponding results are marked in the tables by “b)”
Calibration is carried out using unbranched alkan-2-ones (having 3 to 16 carbon atoms), with known logP values (the logP values determined on the basis of the retention times using linear interpolation between two successive alkanones).

For series [4], the system named is larvae of the mustard beetle (Phaedon cochleariae). Nature of the series: Phaedon larvae test. The conditions noted are these: in Brassica oleracea, 168 h.
Series [5] relates to caterpillars of the cabbage moth (Plutella xylostella), resistant strain. The experiment in a line: Plutella test, resistant strain. Conditions: 100 ppm, cabbage leaves dipped. In kind it is in vivo.
From the text: Plutella Test, Resistant Strain
as §1

Series [6] concerns Heliothis virescens caterpillars. The experiment in a line: Heliothis virescens test. In kind it is in vivo. The conditions noted are these: 100 ppm, soya bean shoots dipped.
From the text: as §1

The test system of series [7] is caterpillars of the cabbage moth (Plutella xylostella, sensitive strain). Nature of the series: Plutella test, sensitive strain. In kind it is in vivo. The conditions noted are these: 100 ppm, cabbage leaves dipped.
From the text: Plutella Test, Sensitive Strain
as §1

Series [8] has as its system army worm (Spodoptera exigua) caterpillars. Nature of the series: Spodoptera exigua test. In kind it is in vivo. Conditions: 100 ppm, cabbage leaves dipped.
From the text: as §1

Where [9] appears, read: read-out: Kill rate in % after 7 d, 100 ppm, cabbage leaves dipped, Spodoptera frugiperda.
Where [10] appears, read: read-out: Kill rate in % after 7 d, 100 ppm, bean plants dipped, Tetranychus urticae OP-resistant.
The mark [11] stands for this setting: HPLC, acidic range pH 2.3, 0.1% aqueous phosphoric acid/acetonitrile; marked a), read-out: log P (pH 2.3).
The mark [12] stands for this setting: read-out: Kill rate in % after 7 d, 100 ppm, cabbage leaves dipped, Phaedon cochleariae larvae.
Where [13] appears, read: HPLC, neutral range pH 7.5, 0.01 molar phosphate buffer/acetonitrile; marked b), read-out: log P (pH 7.5).
The mark [14] stands for this setting: 100 ppm, cabbage leaves dipped, read-out: Kill rate in % after 7 d.
[15] abbreviates: 100 ppm, bean plants dipped, Tetranychus urticae OP-resistant, read-out: Kill rate in % after 7 d.
Setting [16] is: reversed-phase C18 HPLC column; HPLC, acidic range pH 2.3, 0.1% aqueous phosphoric acid/acetonitrile; marked a), read-out: log P (pH 2.3).
Setting [17] is: reversed-phase C18 HPLC column; HPLC, neutral range pH 7.5, 0.01 molar phosphate buffer/acetonitrile; marked b), read-out: log P (pH 7.5).

Read-outs that look alike come from different tables or passages of the source.

As for `CC(C)(C)COC(=O)Nc1ccc(-c2ccc(C3CCC(c4c(F)cccc4F)=N3)cc2)cc1` (centres unmarked) [Compound 23], the figures for the pest or weed control at 100 ppm in series [1] (setting [9]) and in series [2] (setting [10]) were no less than 95% and no less than 85%, respectively. The chromatographic logP in series [3] (setting [11]) worked out at 3.76.

In the case of `CCCCCCOC(=O)Nc1ccc(-c2ccc(C3CCC(c4c(F)cccc4F)=N3)cc2)cc1` (centres unmarked) [Compound 19], the pest or weed control at 100 ppm in series [4] (setting [12]) and in series [2] (setting [10]) was no less than 85% throughout. For the same compound, the values for the chromatographic logP in series [3] (setting [11]) and in series [3] (setting [13]) were 4.46 and 5.26, respectively.

Take `CCCCC(CC)COCCOC(=O)Nc1ccc(-c2ccc(C3CCC(c4c(F)cccc4F)=N3)cc2)cc1` (centres unmarked) [Compound 28]: the pest or weed control at 100 ppm in series [1] (setting [9]) is no less than 95%; in series [2] (setting [10]) it was no less than 85%. The results for the chromatographic logP in series [3] (setting [11]) and in series [3] (setting [13]) were 5.13 and 5.97, respectively.

Take `O=C(Nc1ccc(-c2ccc(C3CCC(c4c(F)cccc4F)=N3)cc2)cc1)OCc1ccco1` (centres unmarked) [Compound 26]: the pest or weed control at 100 ppm is no less than 95% in series [1] (setting [9]) and no less than 85% in series [2] (setting [10]). Moreover, the chromatographic logP in series [3] (setting [11]) worked out at 3.01; in series [3] (setting [13]) it was 4.1.

For `CCC(CC)OC(=O)Nc1ccc(-c2ccc(C3CCC(c4c(F)cccc4F)=N3)cc2)cc1` (centres unmarked) [Compound 24], the pest or weed control at 100 ppm in series [4] (setting [12]) and in series [2] (setting [10]) was no less than 85% in each case. The chromatographic logP in series [3] (setting [11]) was found to be 3.76.

Take `O=C1OCCN1c1ccc(-c2ccc(C3CCC(c4c(F)cccc4F)=N3)cc2)cc1` (centres unmarked) [Compound 4, 3-{4′-[5-(2,6-difluorophenyl)-3,4-dihydro-2H -pyrrol-2-yl]-1,1′-biphenyl-4-yl}-1,3-oxazolidin-2-one]: the pest or weed control at 100 ppm in series [1] (setting [14]) is no less than 95%; in series [2] (setting [15]), no less than 85%. Moreover, the chromatographic logP amounted to 2.13 in series [3] (setting [16]) and 3.28 in series [3] (setting [17]).

In the case of `CC(OC(=O)Nc1ccc(-c2ccc(C3CCC(c4c(F)cccc4F)=N3)cc2)cc1)c1ccccc1` (centres unmarked) [Compound 20], the pest or weed control at 100 ppm in series [4] (setting [12]) was no less than 85%; in series [1] (setting [9]), no less than 95%. The chromatographic logP in series [3] (setting [11]) turned out to be 3.63.

In the case of `CN(C)CCOC(=O)Nc1ccc(-c2ccc(C3CCC(c4c(F)cccc4F)=N3)cc2)cc1` (centres unmarked) [Compound 30], the pest or weed control at 100 ppm is no less than 95% in series [1] (setting [9]) and no less than 85% in series [2] (setting [10]). Further, the chromatographic logP in series [3] (setting [11]) worked out at 1.37.

As to `CCOCCOC(=O)Nc1ccc(-c2ccc(C3CCC(c4c(F)cccc4F)=N3)cc2)cc1` (centres unmarked) [Compound 32], the pest or weed control at 100 ppm in series [4] (setting [12]) and in series [2] (setting [10]) was no less than 85% in each case. Also, the chromatographic logP in series [3] (setting [11]) came to 2.52; in series [3] (setting [13]), 3.75.

In the case of `COC(=O)Nc1ccc(-c2ccc(C3CCC(c4c(F)cccc4F)=N3)cc2)cc1` (centres unmarked) [Compound 1, methyl 4′-[5-(2,6-difluorophenyl)-3,4-dihydro-2H-pyrrol-2-yl]-1,1′-biphenyl-4-ylcarbamate], the values for the pest or weed control at 100 ppm in series [4] (setting [12]), in series [1] (setting [9]) and in series [2] (setting [10]) were no less than 85%, no less than 95% and no less than 85%, respectively. Further, the chromatographic logP in series [3] (setting [11]) turned out to be 2.31; in series [3] (setting [13]), 3.52.

With `CCCN(CCC)CCOC(=O)Nc1ccc(-c2ccc(C3CCC(c4c(F)cccc4F)=N3)cc2)cc1` (centres unmarked) [Compound 29], the pest or weed control at 100 ppm in series [4] (setting [12]) and in series [2] (setting [10]) was no less than 85% throughout. Also, the chromatographic logP was 1.74 in series [3] (setting [11]) and 5.52 in series [3] (setting [13]).

`CCCC(C)OC(=O)Nc1ccc(-c2ccc(C3CCC(c4c(F)cccc4F)=N3)cc2)cc1` (centres unmarked) [Compound 17]: the pest or weed control at 100 ppm in series [1] (setting [9]) is no less than 95%; in series [2] (setting [10]), no less than 85%. Moreover, the chromatographic logP in series [3] (setting [13]) was 4.82.

Consider `O=C(Nc1ccc(-c2ccc(C3CCC(c4c(F)cccc4F)=N3)cc2)cc1)OCCOCCOCCCC(F)(F)C(F)(F)F` (centres unmarked) [Compound 34], for which the pest or weed control at 100 ppm in series [1] (setting [9]) was no less than 95%; in series [2] (setting [10]), no less than 85%. For the same compound, the chromatographic logP amounted to 3.7 in series [3] (setting [11]) and 4.73 in series [3] (setting [13]).

For the compound `CCOC(=O)Nc1ccc(-c2ccc(C3CCC(c4c(F)cccc4F)=N3)cc2)cc1` (centres unmarked) [Compound 6], the pest or weed control at 100 ppm in series [4] (setting [12]) was no less than 85%; in series [1] (setting [9]), no less than 95%; in series [2] (setting [10]), no less than 85%. Also, the “Kill rate in % after 7 d” value in series [5], in series [6], in series [7] and in series [8] was 100% each time. In addition, the chromatographic logP in series [3] (setting [11]) worked out at 2.62; in series [3] (setting [13]), 3.85.

As for `CCCOC(=O)Nc1ccc(-c2ccc(C3CCC(c4c(F)cccc4F)=N3)cc2)cc1` (centres unmarked) [Compound 2, n-propyl 4′-[5-(2,6-difluorophenyl)-3,4-dihydro-2H-pyrrol-2-yl]-1,1′-biphenyl-4-ylcarbamate], the pest or weed control at 100 ppm in series [4] (setting [12]) is no less than 85%; in series [1] (setting [9]), no less than 95%; in series [2] (setting [10]), no less than 85%. Further, the figures for the chromatographic logP in series [3] (setting [11]) and in series [3] (setting [13]) were 3.02 and 4.24, respectively.

`O=C(Nc1ccc(-c2ccc(C3CCC(c4c(F)cccc4F)=N3)cc2)cc1)OCCc1ccccc1` (centres unmarked) [Compound 25]: the pest or weed control at 100 ppm in series [4] (setting [12]) is no less than 85%; in series [1] (setting [9]) it was no less than 95%. The chromatographic logP worked out at 3.62 in series [3] (setting [11]) and 4.64 in series [3] (setting [13]).

For `COC(=O)N(C)c1ccc(-c2ccc(C3CCC(c4c(F)cccc4F)=N3)cc2)cc1` (centres unmarked) [Compound 35], the pest or weed control at 100 ppm in series [4] (setting [12]) and in series [2] (setting [10]) was no less than 85% throughout. Moreover, the chromatographic logP was 2.58 in series [3] (setting [11]) and 3.79 in series [3] (setting [13]).

`O=C(Nc1ccccc1)Nc1ccc(-c2ccc(C3CCC(c4c(F)cccc4F)=N3)cc2)cn1` (centres unmarked) [Compound 22]: the values for the pest or weed control at 100 ppm in series [1] (setting [14]) and in series [2] (setting [15]) were no less than 95% and no less than 85%, respectively. The chromatographic logP in series [3] (setting [16]) was 2.71; in series [3] (setting [17]), 3.98.

As for `O=C(Nc1ccc(-c2ccc(C3CCC(c4c(F)cccc4F)=N3)cc2)cc1)N1CCCCC1` (centres unmarked) [Compound 12], the pest or weed control at 100 ppm in series [4] (read-out: Kill rate in % after 7 d) is 100%; in series [1] (setting [14]), no less than 95%. Further, the values for the chromatographic logP in series [3] (setting [16]) and in series [3] (setting [17]) were 2.53 and 3.71, respectively.

`O=C(Nc1ccc(-c2ccc(C3CCC(c4c(F)cccc4F)=N3)cc2)cc1)OCc1cccs1` (centres unmarked) [Compound 27]: the values for the pest or weed control at 100 ppm in series [4] (setting [12]), in series [1] (setting [9]) and in series [2] (setting [10]) were no less than 85%, no less than 95% and no less than 85%, respectively. Moreover, the results for the chromatographic logP in series [3] (setting [11]) and in series [3] (setting [13]) were 3.28 and 4.36, respectively.

The values above are taken from patent US7074785B2, “Δ1-pyrrolines used as pesticides” (Bayer Cropscience AG, priority 2001, dated 2006).
